Assay results as given in ChEMBL document CHEMBL1909046, “DrugMatrix in vitro pharmacology data”.

Legend:
[1] = biological target: T1, Cysteinyl leukotriene receptor 1 (Homo sapiens, UniProt Q9Y271); type: cell membranes, CHO-K1, Membrane; conditions: cho-k1; further: in other assays of this panel Not Active means under 50% inhibition at 10 µM
T1 sequence (Q9Y271 whole entry): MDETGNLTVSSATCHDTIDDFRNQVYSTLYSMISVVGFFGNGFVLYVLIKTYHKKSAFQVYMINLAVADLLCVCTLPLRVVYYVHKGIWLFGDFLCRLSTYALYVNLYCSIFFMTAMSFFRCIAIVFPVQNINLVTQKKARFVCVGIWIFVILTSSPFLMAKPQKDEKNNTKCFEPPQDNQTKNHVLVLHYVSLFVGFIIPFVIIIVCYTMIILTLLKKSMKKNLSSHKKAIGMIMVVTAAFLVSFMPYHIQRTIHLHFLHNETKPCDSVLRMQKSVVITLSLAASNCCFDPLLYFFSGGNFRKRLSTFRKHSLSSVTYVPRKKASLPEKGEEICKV

[2] = DRUGMATRIX: GABAA, Chloride Channel, TBOB radioligand binding (ligand: [3H] TBOB); type: cell membranes, Rattus norvegicus, Wistar, Cerebral cortex, Membrane; conditions: Not Active = under 50% inhibition at 10 µM
[3] = DRUGMATRIX: Serotonin (5-Hydroxytryptamine) 5-HT3 radioligand binding (ligand: [3H] GR-65630); type: cell membranes, Membrane; conditions: hek293; Not Active = under 50% inhibition at 10 µM
[4] = biological target: Tyrosine-protein kinase Fyn (Homo sapiens, UniProt P06241); experiment: biochemical; type: cell-based, Insect cells;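 further: enzymatic inhibition of Fyn kinase activity measured with Poly(Glu:Tyr) as the phosphorylation substrate; in other assays of this panel Not Active means under 50% inhibition at 10 µM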
Tyrosine-protein kinase Fyn, sequence (P06241 whole entry): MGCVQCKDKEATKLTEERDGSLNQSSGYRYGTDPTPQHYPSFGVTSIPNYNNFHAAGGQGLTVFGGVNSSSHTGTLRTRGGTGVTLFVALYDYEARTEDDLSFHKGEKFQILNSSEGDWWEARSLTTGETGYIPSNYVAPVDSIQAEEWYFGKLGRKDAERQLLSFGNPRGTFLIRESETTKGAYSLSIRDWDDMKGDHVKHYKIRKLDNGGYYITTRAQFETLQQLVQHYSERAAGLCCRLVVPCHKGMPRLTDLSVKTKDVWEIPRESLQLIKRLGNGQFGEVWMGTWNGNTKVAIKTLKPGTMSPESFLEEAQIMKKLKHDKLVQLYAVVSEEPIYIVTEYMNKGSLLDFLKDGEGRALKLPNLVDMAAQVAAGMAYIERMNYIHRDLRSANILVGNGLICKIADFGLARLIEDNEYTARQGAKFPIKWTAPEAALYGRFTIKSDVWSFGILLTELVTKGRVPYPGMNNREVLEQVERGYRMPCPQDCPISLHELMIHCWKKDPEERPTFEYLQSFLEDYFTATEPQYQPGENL

[5] = biological target: T2, Vasoactive intestinal polypeptide receptor 1 (Homo sapiens, UniProt P32241); type: cell membranes, Membrane; conditions: ht-29; further: in other assays of this panel Not Active means under 50% inhibition at 10 µM
T2 sequence (P32241 whole entry): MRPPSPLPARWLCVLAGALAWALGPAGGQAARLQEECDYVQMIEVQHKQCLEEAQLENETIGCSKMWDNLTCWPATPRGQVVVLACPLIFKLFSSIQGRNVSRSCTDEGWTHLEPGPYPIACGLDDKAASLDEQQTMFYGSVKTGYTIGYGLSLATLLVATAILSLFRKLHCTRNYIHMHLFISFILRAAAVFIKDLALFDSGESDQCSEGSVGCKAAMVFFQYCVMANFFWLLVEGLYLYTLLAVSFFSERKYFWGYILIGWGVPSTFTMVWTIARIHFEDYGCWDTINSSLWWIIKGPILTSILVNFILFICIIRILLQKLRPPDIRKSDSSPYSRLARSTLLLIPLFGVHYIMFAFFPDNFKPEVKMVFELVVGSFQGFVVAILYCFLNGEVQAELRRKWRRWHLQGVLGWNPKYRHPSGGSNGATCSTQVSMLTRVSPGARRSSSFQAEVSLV

[6] = biological target: T3, Amine oxidase [flavin-containing] A (Homo sapiens, UniProt P21397); experiment: DRUGMATRIX: Monoamine Oxidase MAO-A enzyme inhibition (substrate: Kynuramine); parameters: species or system BTI-TN-5B1-4; conditions: bti-tn-5b1-4; Not Active = under 50% inhibition at 10 µM
T3 sequence (P21397 whole entry): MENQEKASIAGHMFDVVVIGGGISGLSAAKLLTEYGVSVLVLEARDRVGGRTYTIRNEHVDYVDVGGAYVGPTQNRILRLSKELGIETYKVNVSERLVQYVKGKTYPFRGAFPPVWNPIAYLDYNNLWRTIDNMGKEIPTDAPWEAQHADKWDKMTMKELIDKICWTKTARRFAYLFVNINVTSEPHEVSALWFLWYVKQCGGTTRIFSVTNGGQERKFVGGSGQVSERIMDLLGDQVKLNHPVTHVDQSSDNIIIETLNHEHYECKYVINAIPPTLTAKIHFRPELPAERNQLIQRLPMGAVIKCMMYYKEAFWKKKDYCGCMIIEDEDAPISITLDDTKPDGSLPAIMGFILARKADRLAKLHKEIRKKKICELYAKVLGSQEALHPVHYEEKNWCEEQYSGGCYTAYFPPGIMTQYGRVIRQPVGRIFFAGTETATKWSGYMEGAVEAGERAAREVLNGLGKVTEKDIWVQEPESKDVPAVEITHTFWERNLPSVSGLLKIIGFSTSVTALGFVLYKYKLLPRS

Compound	IC50 [1]	IC50 [2]	Ki [2]	IC50 [3]	Ki [3]	IC50 ([4]; insect cells)	IC50 [5]	IC50 [6]	IC50 [4] [µM]	IC50 ([4]; read-out: IC50) [µM]
C[N+](C)(C)CCO.[Cl-] [CHOLINE CHLORIDE]	Not Active	Not Active	Not Active	Not Active	Not Active	Not Active	Not Active	Not Active	–	–
CCOC(=O)C(C)(C)Oc1ccc(Cl)cc1 [CLOFIBRATE]	Not Active	Not Active	Not Active	Not Active	Not Active	Not Active	Not Active	Not Active	–	–
CC(=O)OCC(=O)[C@@]1(O)CC[C@H]2[C@@H]3CCC4=CC(=O)CC[C@]4(C)[C@H]3C(=O)C[C@@]21C [CORTISONE ACETATE]	Not Active	Not Active	Not Active	Not Active	Not Active	Not Active	Not Active	Not Active	–	–
O=c1ccc2ccccc2o1 [COUMARIN]	Not Active	Not Active	Not Active	Not Active	Not Active	Not Active	Not Active	Not Active	–	–
C[C@@H]1C[C@@H]([C@H](O)CC2CC(=O)NC(=O)C2)C(=O)[C@@H](C)C1 [CYCLOHEXIMIDE]	Not Active	Not Active	Not Active	Not Active	Not Active	Not Active	Not Active	Not Active	–	–
CN(C)/N=N/c1[nH]cnc1C(N)=O [DACARBAZINE]	Not Active	Not Active	Not Active	Not Active	Not Active	Not Active	Not Active	Not Active	–	–
COc1ccc2c(c1)[C@]13CCCC[C@@H]1[C@H](C2)N(C)CC3 [DEXTROMETHORPHAN]	Not Active	Not Active	Not Active	Not Active	Not Active	Not Active	Not Active	Not Active	–	–
CC(=O)Nc1c(I)c(NC(C)=O)c(I)c(C(=O)O)c1I [DIATRIZOIC ACID]	Not Active	Not Active	Not Active	Not Active	Not Active	Not Active	Not Active	Not Active	–	–
COP(=O)(OC)OC=C(Cl)Cl [DICHLORVOS]	Not Active	Not Active	Not Active	Not Active	Not Active	Not Active	Not Active	Not Active	–	–
O=C(O)Cc1ccccc1Nc1c(Cl)cccc1Cl [DICLOFENAC]	Not Active	Not Active	Not Active	Not Active	Not Active	Not Active	Not Active	Not Active	–	–
C[C@H]1O[C@@H](O[C@H]2[C@@H](O)C[C@H](O[C@H]3[C@@H](O)C[C@H](O[C@H]4CC[C@@]5(C)[C@H](CC[C@@H]6[C@@H]5CC[C@]5(C)[C@@H](C7=CC(=O)OC7)CC[C@]65O)C4)O[C@@H]3C)O[C@@H]2C)C[C@H](O)[C@@H]1O [DIGITOXIN]	Not Active	Not Active	Not Active	Not Active	Not Active	Not Active	Not Active	Not Active	–	–
CCN1CC(CCN2CCOCC2)C(c2ccccc2)(c2ccccc2)C1=O (centres undefined) [DOXAPRAM]	Not Active	Not Active	Not Active	Not Active	Not Active	Not Active	Not Active	Not Active	–	–
Cn1c(=O)c2c(ncn2CC2OCCO2)n(C)c1=O [DOXOFYLLINE]	Not Active	Not Active	Not Active	Not Active	Not Active	Not Active	Not Active	Not Active	–	–
COc1cccc2c1C(=O)c1c(O)c3c(c(O)c1C2=O)C[C@@](O)(C(=O)CO)C[C@@H]3O[C@H]1C[C@H](N)[C@H](O)[C@H](C)O1 [DOXORUBICIN]	Not Active	Not Active	Not Active	Not Active	Not Active	–	Not Active	Not Active	5.15	–
COc1cccc2c1C(=O)c1c(O)c3c(c(O)c1C2=O)C[C@@](O)(C(=O)CO)C[C@@H]3O[C@H]1C[C@H](N)[C@@H](O)[C@H](C)O1 [EPIRUBICIN]	Not Active	Not Active	Not Active	Not Active	Not Active	–	Not Active	Not Active	–	5.18
C[C@]12CC[C@@H]3c4ccc(OC(=O)c5ccccc5)cc4CC[C@H]3[C@@H]1CC[C@@H]2O [ESTRADIOL BENZOATE]	Not Active	Not Active	Not Active	Not Active	Not Active	–	Not Active	Not Active	–	23
C[C@]12CC[C@@H]3c4ccc(O)cc4CC[C@H]3[C@@H]1CC[C@@H]2O [ESTRADIOL]	Not Active	Not Active	Not Active	Not Active	Not Active	Not Active	Not Active	Not Active	–	–
CC[C@@H](CO)NCCN[C@@H](CC)CO [ETHAMBUTOL]	Not Active	Not Active	Not Active	Not Active	Not Active	Not Active	Not Active	Not Active	–	–
CC1(C)O[C@@H]2C[C@H]3[C@@H]4C[C@H](F)C5=CC(=O)C=C[C@]5(C)[C@H]4[C@@H](O)C[C@]3(C)[C@]2(C(=O)CO)O1 [FLUNISOLIDE]	Not Active	Not Active	Not Active	Not Active	Not Active	Not Active	Not Active	Not Active	–	–
CC1(C)O[C@@H]2C[C@H]3[C@@H]4C[C@H](F)C5=CC(=O)C=C[C@]5(C)[C@@]4(F)[C@@H](O)C[C@]3(C)[C@]2(C(=O)CO)O1 [FLUOCINOLONE ACETONIDE]	Not Active	Not Active	Not Active	Not Active	Not Active	Not Active	Not Active	Not Active	–	–
CC1(C)O[C@@H]2C[C@H]3[C@@H]4C[C@H](F)C5=CC(=O)CC[C@]5(C)[C@H]4[C@@H](O)C[C@]3(C)[C@]2(C(=O)CO)O1 [FLURANDRENOLIDE]	Not Active	Not Active	Not Active	Not Active	Not Active	Not Active	Not Active	Not Active	–	–
CN(C)c1ccc(C(=C2C=CC(=[N+](C)C)C=C2)c2ccc(N(C)C)cc2)cc1.[Cl-] [GENTIAN VIOLET]	Not Active	Not Active	Not Active	Not Active	Not Active	–	Not Active	Not Active	–	2.15
Cc1ccc(S(=O)(=O)NC(=O)NN2CC3CCCC3C2)cc1 (centres undefined) [GLICLAZIDE]	Not Active	Not Active	Not Active	Not Active	Not Active	Not Active	Not Active	Not Active	–	–
